The values below come from article PMC6085350, “Small molecule inhibitors of RAS-effector protein interactions derived using an intracellular antibody fragment” (Nature Communications, 2018).

The test system of one assay is KRAS-GDP. The experiment in a line: waterLOGSY NMR binding to GDP form. The procedure: The waterLOGSY NMR method[35] was used to measure RAS ligand interaction. WaterLOGSY experiments were conducted at a ^1H frequency of 600 MHz using a Bruker Avance spectrometer equipped with a BBI probe. All experiments were conducted at 298 K, 3 mm diameter NMR tubes with a sample final volume of 200 µl was used in all experiments. Solutions were buffered using an H2O 10 mM PBS, 5 mM MgCl2 buffer corrected to pH 7.4. The sample preparation is exemplified as follows, the compound (10 µl of a […] solution in DMSO-d6) was added to an eppendorf before sequential addition of the H2O PBS buffer (163.6 µl), D2O (20 µl), and protein (6.4 µl, 311.8 µM). The resulting solution was spun to ensure full mixing and transferred to a 3 mm NMR tube before running the experiment. For a competition experiment using Y6-scFv or VH, the preparation was carried out in a similar manner; the compound (10 µl of a 10 mM solution in DMSO-d6) was added to an eppendorf before sequential addition of the H2O PBS buffer (146.4 µl), D2O (20 µl), protein (6.4 µl, 311.8 µM) and Y6-ScFv (17.2 µl, 116.6 µM) with a ratio of 5.5:1:1. The resulting solution was spun and transferred to a 3 mm NMR tube before the run. […]
Supplementary Figure 3: Abd-2 WaterLOGSY NMR with and without anti RAS-scFV Abd-2 was analyzed by waterLOGSY. […]

Assay [1] deals with T1, NRAS^Q61H interacting with PI3Kα, PI3Kγ, CRAF-RBD or full-length CRAF and RALGDS-RBD (Homo sapiens, UniProt P01111, Q61H).
T1 construct: Transfection vector encoded full-length RAS was fused to the donor molecule RLuc8; expressed in transfected cells; host or cells: HEK293T
The experiment in a line: BRET2 RAS-effector PPI assay, NRAS Q61H. Format: cell-based. The note with it: HEK293T, 5, 10 and 20 μM. The source says: (§1) Fig. 4 Abd-7 disrupting RAS-effector interactions. HEK293T cells were transfected with different BRET-based RAS biosensor expression vectors to evaluate the inhibition of RAS PPI in cells by compound Abd-7. Transfection vector encoded full-length RAS was fused to the donor molecule RLuc8 and the effectors fused to the acceptor molecule GFP[2]. a Effect of Abd-2 and Abd-7 on KRAS^G12D interaction with PI3Kα, PI3Kγ, CRAF or RALGDS. The BRET signal is plotted as a % of control cells treated with DMSO only and dose response to 5, 10 and 20 μM of each compound. b Effect of Abd-2 and Abd-7 on the BRET signal from interaction of KRAS^G12 mutants (Rluc8-KRAS^G12) and full-length CRAF (GFP[2]-CRAF FL). c, d Effect of Abd-2 and Abd-7 on the interaction of NRAS^Q61H (c) and HRAS^G12V (d) with various RAS effectors domain and with full-length CRAF. The BRET ratio corresponds to the light emitted by the GFP[2] acceptor constructs (515 nm ± 30) upon addition of Coelenterazine 400a divided by the light emitted by the RLuc8 donor constructs (410 nm ± 80). The normalized BRET ratio is the BRET ratio normalized to the DMSO negative and calculated as follows: (BRETcompound/BRETDMSO) x 100, where BRETcompound corresponds to the BRET ratio for the compound-treated cells, BRETDMSO to the DMSO-treated cells. Each experiment was repeated at least three times. […]
(Bioluminescence resonance energy transfer reports proximity on the nanometre scale.)

The target of assay [2] is T2, HRAS^G12V interacting with PI3Kα, PI3Kγ, CRAF-RBD or full-length CRAF and RALGDS-RBD (Homo sapiens, UniProt P01112, G12V).
T2 construct: Transfection vector encoded full-length RAS was fused to the donor molecule RLuc8; expressed in transfected cells; host or cells: HEK293T
Nature of the assay: BRET2 RAS-effector PPI assay, HRAS G12V. Format: cell-based. The following applies: HEK293T, 5, 10 and 20 μM.
Text: as §1

Consider `O=C(NCC1COc2ccccc2O1)c1ccco1` (centres unmarked) [Abd-2], for which, in the assay with KRAS-GDP, the “binding to KRAS-GDP (waterLOGSY)” value was “poor binding”. Also, in assay [1], the “effect on BRET signal, NRAS^Q61H with effectors” value was “does not”. In assay [2], the “effect on BRET signal, HRAS^G12V with effectors” value is on record as “does not”.
For the molecule `COc1nc(-c2cccc3c2OCCO3)ccc1Nc1ccc(CN(C)C)cc1` [Abd-7], in assay [1], the “effect on BRET signal, NRAS^Q61H with effectors” value was “interferes”. The “effect on BRET signal, HRAS^G12V with effectors” value in assay [2] is given as “interferes”.
